Consider 19 compounds from US20260327221A1, “INHIBITORS OF CYCLIC GMP-AMP SYNTHASE AND USES THEREOF” (Ventus Therapeutics U.S., Inc., priority 2023, published 2026).

SMILES strings stand for the structures.

The target of the assay is hcGAS (Homo sapiens, UniProt Q8N884). Put plainly: hcGAS LCMS assay (direct measurement of cGAMP production by LC/MS). To be noted: 4 h incubation with enzyme and substrates; cGAMP production by LC/MS; class symbols; read-out: hcGAS LCMS IC50. It counts as biochemical. An outline of the steps:
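Enzyme, substrates (ATP, GTP) and compound incubated 4 h, then quenched with acetonitrile/water containing 0.15 uM 13C/15N-labeled cGAMP internal standard. cGAMP formed quantified directly by LC/MS on HILIC amide column; IC50 values reported in potency bins.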

hcGAS, sequence (Q8N884 whole entry): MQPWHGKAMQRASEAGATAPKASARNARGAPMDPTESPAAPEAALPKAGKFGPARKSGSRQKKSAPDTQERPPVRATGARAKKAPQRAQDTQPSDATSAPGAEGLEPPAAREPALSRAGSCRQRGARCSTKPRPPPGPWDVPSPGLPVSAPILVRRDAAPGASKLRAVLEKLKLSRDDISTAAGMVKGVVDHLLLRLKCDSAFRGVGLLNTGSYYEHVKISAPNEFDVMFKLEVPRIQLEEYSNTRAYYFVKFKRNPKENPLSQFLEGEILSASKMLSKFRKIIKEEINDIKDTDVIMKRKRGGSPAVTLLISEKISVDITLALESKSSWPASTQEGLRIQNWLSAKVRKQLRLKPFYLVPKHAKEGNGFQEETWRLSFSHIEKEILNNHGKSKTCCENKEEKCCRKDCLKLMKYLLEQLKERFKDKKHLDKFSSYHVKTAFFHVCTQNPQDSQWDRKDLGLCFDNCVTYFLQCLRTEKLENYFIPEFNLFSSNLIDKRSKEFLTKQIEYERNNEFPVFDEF

The IC50 is the concentration that inhibits the measured activity by half. Turning to `COC[C@@H](CO)Oc1c(-c2c(OC)cccc2OC)cc(C(=O)Nc2nnc(-n3nccc3N)s2)oc1=O` [Compound 62B*, (R)—N-(5-(5-amino-1H-pyrazol-1-yl)-1,3,4-thiadiazol-2-yl)-4-(2,6-dimethoxyphenyl)-3-((1-hydroxy-3-methoxypropan-2-yl)oxy)-2-oxo-2H-pyran-6-carboxamide], the IC50 lay within 0.5 to 1 nM.
`COC[C@H](O)COc1c(-c2c(OC)cccc2OC)cc(C(=O)Nc2nnc(-n3nccc3N)s2)oc1=O` [Compound 63A*, (S)—N-(5-(5-amino-1H-pyrazol-1-yl)-1,3,4-thiadiazol-2-yl)-4-(2,6-dimethoxyphenyl)-3-(2-hydroxy-3-methoxypropoxy)-2-oxo-2H-pyran-6-carboxamide]: the IC50 is 0.5 to 1 nM.
The result for `COc1cccc(OC)c1-c1cc(C(=O)Nc2nnc(-n3nccc3N)s2)oc(=O)c1OCCN1CC2(CSC2)C1` [Compound 65, 3-(2-(2-thia-6-azaspiro[3.3]heptan-6-yl)ethoxy)-N-(5-(5-amino-1H-pyrazol-1-yl)-1,3,4-thiadiazol-2-yl)-4-(2,6-dimethoxyphenyl)-2-oxo-2H-pyran-6-carboxamide] reads 0.5 to 1 nM; that for `COCCOc1c(-c2c(C#N)ccnc2OC)cc(C(=O)Nc2nnc(-n3nccc3N)s2)oc1=O` [Compound 66, N-(5-(5-amino-1H-pyrazol-1-yl)-1,3,4-thiadiazol-2-yl)-4-(4-cyano-2-methoxypyridin-3-yl)-3-(2-methoxyethoxy)-2-oxo-2H-pyran-6-carboxamide], 0.5 to 1 nM; that for `COCCOc1c(-c2c(OC)cccc2OCCC#N)cc(C(=O)Nc2nnc(-n3nccc3N)s2)oc1=O` [Compound 67, N-(5-(5-amino-1H-pyrazol-1-yl)-1,3,4-thiadiazol-2-yl)-4-(2-(2-cyanoethoxy)-6-methoxyphenyl)-3-(2-methoxyethoxy)-2-oxo-2H-pyran-6-carboxamide], 1 to 5 nM.
As for `COc1cccc(OC)c1-c1cc(C(=O)Nc2nnc(-n3nccc3N)s2)oc(=O)c1OCCOCCO` [Compound 68, N-(5-(5-amino-1H-pyrazol-1-yl)-1,3,4-thiadiazol-2-yl)-4-(2,6-dimethoxyphenyl)-3-(2-(2-hydroxyethoxy)ethoxy)-2-oxo-2H-pyran-6-carboxamide], the figure is under 0.5 nM.
`COc1cccc(OC)c1-c1cc(C(=O)Nc2nnc(-n3nccc3N)s2)oc(=O)c1OCCN1CCCCC1` [Compound 69, N-(5-(5-amino-1H-pyrazol-1-yl)-1,3,4-thiadiazol-2-yl)-4-(2,6-dimethoxyphenyl)-2-oxo-3-(2-(piperidin-1-yl)ethoxy)-2H-pyran-6-carboxamide]: the IC50 is 5 to 20 nM.
In the case of `COCCOc1c(-c2ncccc2OC2CC2)cc(C(=O)Nc2nnc(-n3nccc3N)s2)oc1=O` [Compound 70, N-(5-(5-amino-1H-pyrazol-1-yl)-1,3,4-thiadiazol-2-yl)-4-(3-cyclopropoxypyridin-2-yl)-3-(2-methoxyethoxy)-2-oxo-2H-pyran-6-carboxamide], the IC50 was 0.5 to 1 nM.
On to `COc1cccc(OC)c1-c1cc(C(=O)Nc2nnc(-n3nccc3N)s2)oc(=O)c1OCCN1CC2(CCS2)C1` [Compound 72, 3-(2-(1-thia-6-azaspiro[3.3]heptan-6-yl)ethoxy)-N-(5-(5-amino-1H-pyrazol-1-yl)-1,3,4-thiadiazol-2-yl)-4-(2,6-dimethoxyphenyl)-2-oxo-2H-pyran-6-carboxamide], for which the IC50 is 0.5 to 1 nM.
As for `COCCOc1c(-c2c(C#N)cccc2OC(F)F)cc(C(=O)Nc2nnc(-n3nccc3N)s2)oc1=O` [Compound 74, N-(5-(5-amino-1H-pyrazol-1-yl)-1,3,4-thiadiazol-2-yl)-4-(2-cyano-6-(difluoromethoxy)phenyl)-3-(2-methoxyethoxy)-2-oxo-2H-pyran-6-carboxamide], the figure is 0.5 to 1 nM; as for `COc1cccc(OC)c1-c1cc(C(=O)Nc2nnc(-n3nccc3N)s2)oc(=O)c1OCCN1CCSCC1=O` [Compound 75, N-(5-(5-amino-1H-pyrazol-1-yl)-1,3,4-thiadiazol-2-yl)-4-(2,6-dimethoxyphenyl)-2-oxo-3-(2-(3-oxothiomorpholino)ethoxy)-2H-pyran-6-carboxamide], 0.5 to 1 nM.
As for `COc1cccc(OC)c1-c1cc(C(=O)Nc2nnc(-n3nccc3N)s2)oc(=O)c1OCCCN1CCSCC1` [Compound 88, N-(5-(5-amino-1H-pyrazol-1-yl)-1,3,4-thiadiazol-2-yl)-4-(2,6-dimethoxyphenyl)-2-oxo-3-(3-thiomorpholinopropoxy)-2H-pyran-6-carboxamide], the figure is 0.5 to 1 nM; as for `COc1cccc(OC)c1-c1cc(C(=O)Nc2nnc(-n3nccc3N)s2)oc(=O)c1OCCN1CCCSCC1` [Compound 89, 3-(2-(1,4-thiazepan-4-yl)ethoxy)-N-(5-(5-amino-1H-pyrazol-1-yl)-1,3,4-thiadiazol-2-yl)-4-(2,6-dimethoxyphenyl)-2-oxo-2H-pyran-6-carboxamide], 0.5 to 1 nM.
For `COc1cccc(OC)c1-c1cc(C(=O)Nc2nnc(-n3nccc3N)s2)oc(=O)c1OCC(=O)N1CCSCC1` [Compound 90, N-(5-(5-amino-1H-pyrazol-1-yl)-1,3,4-thiadiazol-2-yl)-4-(2,6-dimethoxyphenyl)-2-oxo-3-(2-oxo-2-thiomorpholinoethoxy)-2H-pyran-6-carboxamide], the IC50 is under 0.5 nM.
As to `COc1cccc(OC)c1-c1cc(C(=O)Nc2nnc(-n3nccc3N)s2)oc(=O)c1OCCN1C2CSCC1C2` [Compound 94, 3-(2-(3-thia-6-azabicyclo[3.1.1]heptan-6-yl)ethoxy)-N-(5-(5-amino-1H-pyrazol-1-yl)-1,3,4-thiadiazol-2-yl)-4-(2,6-dimethoxyphenyl)-2-oxo-2H-pyran-6-carboxamide], the IC50 lay within 0.5 to 1 nM.
For the compound `COc1cccnc1-c1cc(C(=O)Nc2nnc(-n3nccc3N)s2)oc(=O)c1O[C@@H](C)CO` [Compound 107A, (S)—N-(5-(5-amino-1H-pyrazol-1-yl)-1,3,4-thiadiazol-2-yl)-3-((1-hydroxypropan-2-yl)oxy)-4-(3-methoxypyridin-2-yl)-2-oxo-2H-pyran-6-carboxamide], the IC50 lay in the range of 1 to 5 nM.
Consider `COc1cccnc1-c1cc(C(=O)Nc2nnc(-n3nccc3N)s2)oc(=O)c1O[C@H](C)CO` [Compound 107B, (R)-N-(5-(5-amino-1H-pyrazol-1-yl)-1,3,4-thiadiazol-2-yl)-3-((1-hydroxypropan-2-yl)oxy)-4-(3-methoxypyridin-2-yl)-2-oxo-2H-pyran-6-carboxamide], for which the IC50 was 0.5 to 1 nM.
`COc1cccc(OC)c1-c1cc(C(=O)Nc2nnc(-n3nccc3N)s2)oc(=O)c1O[C@H]1CC[C@H](O)CC1` [Compound 108A, N-(5-(5-amino-1H-pyrazol-1-yl)-1,3,4-thiadiazol-2-yl)-4-(2,6-dimethoxyphenyl)-3-(((1r,4r)-4-hydroxycyclohexyl)oxy)-2-oxo-2H-pyran-6-carboxamide]: the IC50 was under 0.5 nM.
The result for `COc1cccc(OC)c1-c1cc(C(=O)Nc2nnc(-n3nccc3N)s2)oc(=O)c1O[C@H]1CC[C@@H](O)CC1` [Compound 108B, N-(5-(5-amino-1H-pyrazol-1-yl)-1,3,4-thiadiazol-2-yl)-4-(2,6-dimethoxyphenyl)-3-(((1s,4s)-4-hydroxycyclohexyl)oxy)-2-oxo-2H-pyran-6-carboxamide] reads 1 to 5 nM.
